Laboratory results: patent publication US20240287022A1 (Merck Sharp & Dohme LLC, priority 2021, published 2024)

Biological target: recombinant IL4I1 (Homo sapiens (Human), UniProt Q96RQ9)
Test: IL4I1 Enzymatic Assay (Amplex Red/HRP coupled H2O2 detection)
Type: biochemical
Details: 1 nM IL4I1, 1 mM each Phe/Tyr/Trp, four-hour pre-incubation, 120 minutes reaction, top compound concentration of 10000 nM
Method: Interleukin 4 inducible protein 1 (IL4I1) is an L-amino oxidase that catalyzes the oxidation of aromatic residues (Phe, Trp and Tyr): L-amino acid+H2O+O2→2-oxo acid+NH3+H2O2. Equal molar of H2O2 and the corresponding alpha-ketoacid are produced when IL4I1 and substrate are added. In this assay, the hydrogen peroxide generated by IL4I1 are then detected through a coupled reaction with Amplex Red (10-acetyl-3,7-dihydroxyphenoxazine) and […] (HRP) to produce Resorufin product that could be detected in the form of fluorescence signals. The assessment of the inhibitory effect of small molecules (EC50) on IL4I1 is measured by the effectiveness of the compounds to inhibit the production of H2O2.
Using this assay, the potency (EC50) of each compound was determined from a ten-point (1:3 serial dilution; top compound concentration of 10000 nM) titration curve using the following outlined procedure. To each well of a black flat-bottom Greiner (Cat #781076) 384 well-plate, 25 nL of compound (0.1% DMSO in final assay volume of 25 μL) was dispensed, followed by the addition of 12.5 μL of 1× assay buffer (50 mM Hepes 7.0 and 0.005% Tween20 (Sigma, Cat #P8341; low peroxide grade)) containing 2 nM of recombinant IL4I1 (R&D Systems, Cat #5684-AO-020). Plates were placed in an ambient temperature humidified chamber for a four-hour pre-incubation with compound. Subsequently, each reaction was initiated by the addition of 12.5 μL 1× assay buffer containing 2 mM of each aromatic amino acids (Phe/Tyr/Trp), 0.1 mM Amplex Red and 2 U/mL of HRP. The final reaction in each well of 25 μL consists of 1 nM of IL4I1, 1 mM of each residues (Phe, Tyr and Trp), 0.05 mM Amplex Red and 1 U/mL of HRP. It should be noted that the concentrations of Amplex Red and HRP used here are in excess such that the conversion of H2O2 to Resorufin product occurs instantaneously and non-rate limiting. Reactions were allowed to proceed for 120 minutes followed by fluorescence readout on a Spectramax with the following set parameters: 544 nm excitation/590 nm emission, 570 nm cutoff (EnVision is an alternative reader). Dose-response curves were generated by plotting percent effect (% product conversion; Y-axis) vs. Log10 compound concentrations (X-axis). EC50 values were calculated using a non-linear regression, four-parameters sigmoidal dose-response model.

Chain of recombinant IL4I1 (Q96RQ9 22-567): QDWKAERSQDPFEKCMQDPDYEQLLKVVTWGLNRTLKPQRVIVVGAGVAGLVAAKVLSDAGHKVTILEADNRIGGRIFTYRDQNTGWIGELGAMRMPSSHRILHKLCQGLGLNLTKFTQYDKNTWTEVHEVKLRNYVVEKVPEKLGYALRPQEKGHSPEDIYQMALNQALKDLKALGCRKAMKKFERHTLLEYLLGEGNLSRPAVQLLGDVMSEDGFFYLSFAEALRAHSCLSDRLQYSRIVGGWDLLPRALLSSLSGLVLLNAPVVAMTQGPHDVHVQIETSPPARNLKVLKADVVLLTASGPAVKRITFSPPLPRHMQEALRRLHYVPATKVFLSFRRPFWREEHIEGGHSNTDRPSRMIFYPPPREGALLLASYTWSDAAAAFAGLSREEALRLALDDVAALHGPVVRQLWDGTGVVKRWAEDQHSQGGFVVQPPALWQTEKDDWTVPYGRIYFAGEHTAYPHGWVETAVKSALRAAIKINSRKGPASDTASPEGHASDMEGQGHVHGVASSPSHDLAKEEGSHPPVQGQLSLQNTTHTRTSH

| Compound | EC50 [nM] |
| --- | --- |
| O=c1[nH]c2ccccc2cc1Cc1cnc(N2CCCCC2)s1 [Example 137, 3-((2-(piperidin-1-yl)thiazol-5-yl)methyl)quinolin-2(1H)-one] | 4.5 |
| CCS(=O)(=O)Nc1ccc(Cc2cc3ccccc3[nH]c2=O)cn1 [Example 47, N-(5-((2-oxo-1,2-dihydroquinolin-3-yl)methyl)pyridin-2-yl)ethanesulfonamide] | 10.8 |
| CC1CN(c2ccc(Cc3cc4cnccc4[nH]c3=O)cc2)C(=O)O1 (single isomer, unassigned) [Example 188, (R or S)-5-methyl-3-(4-((2-oxo-1,2-dihydro-1,6-naphthyridin-3-yl)methyl)phenyl)oxazolidin-2-one] | 12.3 |
| O=c1[nH]c2ccccc2cc1Cc1ccc(-c2cnccn2)c(F)c1 [Example 127, 3-(3-fluoro-4-(pyrazin-2-yl)benzyl)quinolin-2(1H)-one] | 2.1 |
| N#CC1CC(Oc2ccc(Cc3cc4ccccc4[nH]c3=O)cc2)C1 (stereo not shown) [Example 146, 3-(4-((2-oxo-1,2-dihydroquinolin-3-yl)methyl)phenoxy)cyclobutane-1-carbonitrile] | 1.7 |
| CC(=O)c1cccc(Cc2cc3ccccc3[nH]c2=O)c1 [Example 86, 3-(3-acetylbenzyl)quinolin-2(1H)-one] | 0.9 |
| O=c1[nH]c2ccccc2cc1Cc1ccc(N2CCNCC2)cc1 [Example 59, 3-(4-(piperazin-1-yl)benzyl)quinolin-2(1H)-one] | 23.6 |
| O=C1COc2c(Cc3cc4cccc5c4n(c3=O)CCC5)cccc2N1 [Example 149, 8-((5-oxo-2,3-dihydro-1H,5H-pyrido[3,2,1-ij]quinolin-6-yl)methyl)-2H-benzo[b][1,4]oxazin-3(4H)-one] | 150 |
| O=c1[nH]c2ccccc2cc1Cc1ccc([C@H]2CCNC2)cc1 [65B] | 9 |
| CS(=O)(=O)Nc1ccc(Cc2cc3ccccc3[nH]c2=O)cn1 [Example 48, N-(5-((2-oxo-1,2-dihydroquinolin-3-yl)methyl)pyridin-2-yl)methanesulfonamide] | 21.4 |
| C[C@@H]1Oc2ccc(Cc3cc4ccccc4[nH]c3=O)cc2NC1=O (stereo in doubt) [Example 142B, 2-methyl-6-((2-oxo-1,2-dihydroquinolin-3-yl)methyl)-2H-benzo[b][1,4]oxazin-3(4H)-one] | 81.4 |
| N#Cc1ccc2[nH]c(=O)c(Cc3ccccc3)cc2c1 [Example 174, 3-Benzyl-2-oxo-1,2-dihydroquinoline-6-carbonitrile] | 10000 |
| NS(=O)(=O)c1cccc(Cc2cc3ccccc3[nH]c2=O)c1 [Example 141, 3-((2-oxo-1,2-dihydroquinolin-3-yl)methyl)benzenesulfonamide] | 20.2 |
| COc1cc(C#N)cc(Cc2cc3ccccc3[nH]c2=O)c1 [Example 133, 3-methoxy-5-((2-oxo-1,2-dihydroquinolin-3-yl)methyl)benzonitrile] | 2 |
| CC(=O)NCc1ccc(Cc2cc3ccccc3[nH]c2=O)cc1 [Example 124, N-(4-((2-oxo-1,2-dihydroquinolin-3-yl)methyl)benzyl)acetamide] | 3.5 |
| CC(=O)NCc1cccc(Cc2cc3ccccc3[nH]c2=O)c1 [Example 128, N-(3-((2-oxo-1,2-dihydroquinolin-3-yl)methyl)benzyl)acetamide] | 30.4 |
| NCc1cccc2cc(Cc3cccc(OC(F)(F)F)c3)c(=O)[nH]c12 [Example 178, 8-(aminomethyl)-3-(3-(trifluoromethoxy)benzyl)quinolin-2(1H)-one] | 99 |
| CC(=O)NCc1ccc(Cc2cc3ccccc3[nH]c2=O)c(Cl)c1 [compound 67, N-(3-chloro-4-((2-oxo-1,2-dihydroquinolin-3-yl)-methyl)benzyl)acetamide] | 15.6 |
| N#Cc1ccc(F)c(-c2nnc(Cc3cc4ccccc4[nH]c3=O)o2)c1 [Example 33, 4-fluoro-3-(5-((2-oxo-1,2-dihydroquinolin-3-yl)methyl)-1,3,4-oxadiazol-2-yl)benzonitrile] | 65.3 |
| O=C1NC(=O)c2cc(Cc3cc4ccccc4[nH]c3=O)ccc21 [Example 185, 5-((2-oxo-1,2-dihydroquinolin-3-yl)methyl)isoindoline-1,3-dione] | 9.1 |

| Compound | EC50 [nM] |
| --- | --- |
| O=c1[nH]c2ccccc2cc1Cc1ccc2nn[nH]c2c1 [Example 132, 3-((1H-benzo[d][1,2,3]triazol-6-yl)methyl)quinolin-2(1H)-one] | 18.6 |
| O=C1NCCc2ccc(Cc3cc4ccccc4[nH]c3=O)cc21 [Example 77] | 4.7 |
| N#Cc1cnn2ccc(Cc3cc4ccccc4[nH]c3=O)cc12 [Example 92, 5-((2-oxo-1,2-dihydroquinolin-3-yl)methyl)pyrazolo[1,5-a]pyridine-3-carbonitrile] | 1.7 |
| CC1(C)CN(c2ccc(Cc3cc4ccccc4[nH]c3=O)cn2)C(=O)O1 [Example 52, 5,5-dimethyl-3-(5-((2-oxo-1,2-dihydroquinolin-3-yl)methyl)pyridin-2-yl)oxazolidin-2-one] | 10.7 |
| CC(C)(C#N)c1ccc(Cc2cc3ccccc3[nH]c2=O)cc1 [Example 97, 2-methyl-2-(4-((2-oxo-1,2-dihydroquinolin-3-yl)methyl)phenyl)propanenitrile] | 1.4 |
| Cc1oncc1-c1nnc(Cc2cc3ccccc3[nH]c2=O)o1 [Example 29, 3-((5-(5-methylisoxazol-4-yl)-1,3,4-oxadiazol-2-yl)methyl)quinolin-2(1H)-one] | 547 |
| CC(O)C(C#N)c1ccc(Cc2cc3ccccc3[nH]c2=O)cc1 (single isomer, unassigned) [Example 102D, 3-hydroxy-2-(4-((2-oxo-1,2-dihydroquinolin-3-yl)methyl)phenyl)butanenitrile] | 10.9 |
| O=C1COc2ncc(Cc3cc4ccccc4[nH]c3=O)cc2N1 [Example 89, 7-((2-oxo-1,2-dihydroquinolin-3-yl)methyl)-1H-pyrido[2,3-b][1,4]oxazin-2(3H)-one] | 4.5 |
| O=c1[nH]c2ccccc2cc1Cc1ccc(N2CCCS2(=O)=O)nc1 [Example 46, 3-((6-(1,1-dioxidoisothiazolidin-2-yl)pyridin-3-yl)methyl)quinolin-2(1H)-one] | 5.9 |
| O=c1[nH]c2ccccc2cc1Cc1nnc(-c2c(F)cccc2F)o1 [Example 3, 3-((5-(2,6-difluorophenyl)-1,3,4-oxadiazol-2-yl)methyl)quinolin-2(1H)-one] | 2 |
| N#Cc1c[nH]c2ccc(Cc3cc4ccccc4[nH]c3=O)nc12 [Example 96, 5-((2-oxo-1,2-dihydroquinolin-3-yl)methyl)-1H-pyrrolo[3,2-b]pyridine-3-carbonitrile] | 2 |
| O=c1[nH]c2ccncc2cc1Cc1ccc2ccccc2c1 [Example 115, 3-(naphthalen-2-ylmethyl)-1,6-naphthyridin-2(1H)-one] | 1.4 |
| O=c1[nH]c2cnccc2cc1Cc1ccccc1 [Example 104, 3-benzyl-1,7-naphthyridin-2(1H)-one] | 9180 |
| O=c1[nH]c2ccccc2cc1Cc1cc(F)c2c(c1)CNC2 [Example 69, 3-((7-fluoroisoindolin-5-yl)methyl)quinolin-2(1H)-one] | 10.6 |
| O=c1[nH]c2ccc(Cc3cc4ccccc4[nH]c3=O)cc2o1 [Example 121, 6-((2-oxo-1,2-dihydroquinolin-3-yl)methyl)benzo[d]oxazol-2(3H)-one] | 0.9 |
| C[C@]1(c2ccc(Cc3cc4ccccc4[nH]c3=O)cc2)CCC(=O)N1 (single isomer, unassigned) [Example 183A, (S or R)-3-(4-(2-methyl-5-oxopyrrolidin-2-yl)benzyl)quinolin-2(1H)-one] | 15.7 |
| NS(=O)(=O)c1ccc(Cc2cc3ccccc3[nH]c2=O)cc1Cl [Example 70, 2-chloro-4-((2-oxo-1,2-dihydroquinolin-3-yl)methyl)benzenesulfonamide] | 8.9 |
| O=c1[nH]c2ccccc2cc1Cc1nnc(-c2cn[nH]c2)o1 [Example 6, 3-((5-(1H-pyrazol-4-yl)-1,3,4-oxadiazol-2-yl)methyl)quinolin-2(1H)-one] | 2.8 |
| N#Cc1n[nH]c2ccc(Cc3cc4cnccc4[nH]c3=O)cc12 [Example 95, 5-((2-oxo-1,2-dihydro-1,6-naphthyridin-3-yl)methyl)-1H-indazole-3-carbonitrile] | 2.5 |
| O=c1[nH]c2cccnc2cc1Cc1cccc(OC(F)(F)F)c1 [Example 105, 3-(3-(trifluoromethoxy)benzyl)-1,5-naphthyridin-2(1H)-one] | 619 |
